# Test results taken from patent publication US8188059B2, “Compounds and methods for modulating expression of GCGR” (Isis Pharmaceuticals, Inc., priority 2006, dated 2012).
# Strand notation (5' to 3'): a small letter for the sugar, then the base; units joined by * are phosphorothioate-linked, units joined directly phosphodiester-linked; [ ] holds rarer units or linkages, { } end groups; capitals alone tell only the bases. e = 2'-O-(2-methoxyethyl) (MOE); [5mC] = 5-methylcytosine; d = 2'-deoxy (DNA)
# Experiments:
# monkey GCGR mRNA = experiment: Antisense inhibition of GCGR in primary monkey hepatocytes, 25-200 nM (Example 21, Table 80); type: cell-based; conditions: relative to untreated control cells
# Description: Additional short antisense compounds targeted to a GCGR nucleic acid were tested for their effects on monkey GCGR mRNA in vitro. Cultured primary monkey hepatocytes were treated as described herein with 25, 50, 100 or 200 nM of short antisense compound. After the treatment period, RNA was isolated from the cells and GCGR mRNA levels were measured by quantitative real-time PCR, as described herein. GCGR mRNA levels were adjusted according to total RNA content as measured by RIBOGREEN®. Results are presented in Table 80 as percent reduction in GCGR mRNA, relative to untreated control cells.
# ApoB mRNA = ApoB mRNA level in liver of Balb/c mice, i.p. twice per week for three weeks (Example 3, Table 29); type: in vivo, mouse; conditions: for % ApoB mRNA Level (relative to saline control): liver
# Description: Prior to quantitative PCR analysis, primer-probe sets specific to the target gene being measured were evaluated for their ability to be “multiplexed” with a GAPDH amplification reaction. After isolation the RNA is subjected to sequential reverse transcriptase (RT) reaction and real-time PCR, both of which are performed in the same well. RT and PCR reagents were obtained from Invitrogen Life Technologies (Carlsbad, Calif.). […] The RT reaction was carried out by incubation for 30 minutes at 48° C. Following a 10 minute incubation at 95° C. to activate the […]® Taq, 40 cycles of a two-step PCR protocol were carried out: 95° C. for 15 seconds (denaturation) followed by 60° C. for 1.5 minutes (annealing/extension).
# (§1) Antisense compound doses included 2.4, 1.2, 0.6, 0.3 and 0.15 μmol/kg. For antisense compounds 14 nucleotides in length, these doses equate to approximately 12, 6, 3, 1.5 or 0.75 mg/kg, respectively. Shown in Table 25 are the sequences and motifs of the antisense compounds used in this study. […] Bolded residues indicate 2′-O-methoxyethyl moieties and italicized residues indicate methyleneoxy (4′-CH2—O-2′) BNAs. The internucleoside linkages of each compound are phosphorothioate throughout. All cytosine residues of ISIS 147764 and ISIS 372938 are replaced by 5-methyl cytosines. For ISIS 387462, only the cytosine residue in the wing of the compound is replaced by 5-methyl cytosine. ApoB antisense compounds are targeted to publicly available ApoB-100 sequences, including Genbank Accession No. XM—137955.5 (SEQ ID NO: 2).
# (§2) Forty-eight hours following the final injection, mice were sacrificed to evaluate transaminases (Table 26); liver and kidney weight (Table 27); triglyceride, LDL, HDL and free fatty acid levels (Table 28); target mRNA level in liver (Table 29); target protein level in plasma; and oligonucleotide tissue concentration (Table 30). These endpoints were determined using methods described herein and well known to those of ordinary skill in the art.
# [1] = ALT and AST levels, Balb/c mice (Example 3, Table 26); type: in vivo, mouse; conditions: 48 h after final injection
# Description: as §1, §2
# [2] = Liver and kidney weight, total body weight and food consumption (Example 3, Table 27); type: in vivo, mouse; conditions: Balb/c mice
# Description: as §1, §2
# [3] = Triglyceride, total cholesterol, HDL, LDL, free fatty acid and glucose levels (Example 3, Table 28); type: in vivo, mouse; design: Free Fatty Acid (FFA): unit not given here; conditions: Balb/c mice
# Description: as §1, §2
# Glucose levels also were similar among all treatment groups.
# [4] = Full-length and total antisense compound tissue concentration in liver and kidney (Example 3, Table 30); type: in vivo, mouse; conditions: Balb/c mice, 2.4 μmol/kg i.p. twice per week for three weeks
# Description: as §1, §2
# To determine whether the observed increase in efficiency with the methyleneoxy (4′-CH2—O-2′) BNA gapmer is due to an increase in oligonucleotide accumulation, full-length and total oligonucleotide concentration in the liver and kidney were determined.
# GCGR mRNA = GCGR mRNA levels in liver and estimated ED50, C57/BL6 mice, single i.p. dose (Example 5, Tables 44, 45); type: in vivo, mouse
# Description: Eight-week old male C57/BL6 mice (Jackson Laboratory, Bar Harbor, Me.) were administered a single dose of GCGR antisense compound by intraperitonel (i.p.) injection at a concentration of 10, 3.2, 1, and 0.32 μmol·kg. Each dose group consisted of four animals. Shown in Table 43 are the sequences, motifs and conjugates of the GCGR antisense compounds used in this study. Bolded residues indicate 2′-O-methoxyethyl (2′-MOE) modifications and the italicized residues indicate methyleneoxy (4′-CH2—O-2′) BNA modifications. All antisense compounds comprise phosphorothioate internucleoside linkages throughout and each cytosine is replaced with 5-methylcytosine. GCGR antisense compounds target published GCGR nucleic acids, including Genbank Accession No. BC031885.1 (SEQ ID NO: 7).
# To determine whether the phenotypic changes shown above correlated with a decrease in GCGR mRNA, treated animals were evaluated for levels of target mRNA in liver by RT, real time PCR according to methods described herein. Table 44 show results from direct comparisons of the antisense compounds targeting GCGR nucleic acid for their effect on target expression. Results are expressed as percent of saline control.
# rat SGLT2 mRNA = experiment: Rat SGLT2 mRNA levels in kidney, 1-10-1 gapmers at 250 nmol/kg, Sprague-Dawley rats (Example 14, Table 66); type: in vivo
# Description: The effect of the above 1-10-1gapmers (see Table 64 above) on rat SGLT2 mRNA levels. Data are taken from four experiments in which male Sprague-Dawley rats (170-200 g) were dosed twice per week for three weeks with 250 nmol/kg given by intraperitoneal injection. Rats were sacrificed 48 hours following last administration and evaluated for SGLT2 mRNA levels in kidney. Target levels were determined by RT, real-time PCR as described by other examples herein. PCR results were normalized to an internal ISIS control.
# [5] = 0.15 μmol/kg i.p. twice per week for three weeks
# [6] = 0.3 μmol/kg i.p. twice per week for three weeks
# [7] = 0.6 μmol/kg i.p. twice per week for three weeks
# [8] = 1.2 μmol/kg i.p. twice per week for three weeks
# [9] = 2.4 μmol/kg i.p. twice per week for three weeks
substance,measurement,setting,value
327131 (antisense eA*eT*eG*dT*dT*dG*dG*d[5mC]*d[5mC]*dG*dT*eG*eG*eT) [compound 327131],percent reduction in GCGR mRNA,monkey GCGR mRNA; 25 nM,0
same,percent reduction in GCGR mRNA,monkey GCGR mRNA; 50 nM,−8
same,percent reduction in GCGR mRNA,monkey GCGR mRNA; 100 nM,−36
same,percent reduction in GCGR mRNA,monkey GCGR mRNA; 200 nM,−36
372938 (antisense eG*eG*dT*dA*d[5mC]*dA*dT*dG*dG*dA*dA*dG*eT*e[5mC]) [compound 372938],ApoB mRNA level,"ApoB mRNA; Table 30 (rounded), 2.4 μmol/kg i.p. twice per week for three weeks",77 % of saline control
same,% ApoB mRNA Level (relative to saline control),ApoB mRNA; [5],93.1%
same,% ApoB mRNA Level (relative to saline control),ApoB mRNA; [6],92.6%
same,% ApoB mRNA Level (relative to saline control),ApoB mRNA; [7],87.3%
same,% ApoB mRNA Level (relative to saline control),ApoB mRNA; [8],90.0%
same,% ApoB mRNA Level (relative to saline control),ApoB mRNA; [9],77.0%
same,ALT,[1]; [5],28.3 IU/L
same,AST,[1]; [5],50.3 IU/L
same,ALT,[1]; [6],28.3 IU/L
same,AST,[1]; [6],60.0 IU/L
same,ALT,[1]; [7],28.0 IU/L
same,AST,[1]; [7],79.3 IU/L
same,ALT,[1]; [8],24.8 IU/L
same,AST,[1]; [8],49.5 IU/L
same,ALT,[1]; [9],26.0 IU/L
same,AST,[1]; [9],49.0 IU/L
same,Kidney Weight,[2]; [5],98 % of saline control
same,Liver Weight,[2]; [5],96 % of saline control
same,Kidney Weight,[2]; [6],107 % of saline control
same,Liver Weight,[2]; [6],91 % of saline control
same,Kidney Weight,[2]; [7],112 % of saline control
same,Liver Weight,[2]; [7],96 % of saline control
same,Kidney Weight,[2]; [8],101 % of saline control
same,Liver Weight,[2]; [8],90 % of saline control
same,Kidney Weight,[2]; [9],100 % of saline control
same,Liver Weight,[2]; [9],100 % of saline control
same,Free Fatty Acid (FFA),[3]; [5],1.57
same,HDL,[3]; [5],82.8 mg/dL
same,LDL,[3]; [5],10.8 mg/dL
same,Total Cholesterol (CHOL),[3]; [5],106 mg/dL
same,Triglyceride (TRIG),[3]; [5],151 mg/dL
same,Free Fatty Acid (FFA),[3]; [6],1.53
same,HDL,[3]; [6],84.3 mg/dL
same,LDL,[3]; [6],11.0 mg/dL
same,Total Cholesterol (CHOL),[3]; [6],109 mg/dL
same,Triglyceride (TRIG),[3]; [6],138 mg/dL
same,Free Fatty Acid (FFA),[3]; [7],1.66
same,HDL,[3]; [7],83.3 mg/dL
same,LDL,[3]; [7],10.8 mg/dL
same,Total Cholesterol (CHOL),[3]; [7],110 mg/dL
same,Triglyceride (TRIG),[3]; [7],184 mg/dL
same,Free Fatty Acid (FFA),[3]; [8],1.70
same,HDL,[3]; [8],77.8 mg/dL
same,LDL,[3]; [8],9.5 mg/dL
same,Total Cholesterol (CHOL),[3]; [8],101 mg/dL
same,Triglyceride (TRIG),[3]; [8],136 mg/dL
same,Free Fatty Acid (FFA),[3]; [9],1.28
same,HDL,[3]; [9],79.0 mg/dL
same,LDL,[3]; [9],10.3 mg/dL
same,Total Cholesterol (CHOL),[3]; [9],104 mg/dL
same,Triglyceride (TRIG),[3]; [9],153 mg/dL
same,Kidney Full-Length antisense compound tissue concentration,[4],32.0 µM
same,Kidney Total antisense compound tissue concentration,[4],34.0 µM
same,Liver Full-Length antisense compound tissue concentration,[4],5.49 µM
same,Liver Total antisense compound tissue concentration,[4],7.76 µM
396145 (antisense eA*eT*eG*eG*e[5mC]*dT*dT*d[5mC]*dT*d[5mC]*d[5mC]*dA*dT*d[5mC]*dA*eT*eA*eT*e[5mC]*e[5mC]) [compound 396145],GCGR mRNA levels in liver,GCGR mRNA; 3.2 μmol/kg single i.p.,33% of saline control
same,GCGR mRNA levels in liver,GCGR mRNA; 10 μmol/kg single i.p.,8% of saline control
396147 (antisense e[5mC]*eT*eT*eG*eG*dG*d[5mC]*dA*dT*dG*d[5mC]*dT*d[5mC]*dG*dT*e[5mC]*eA*eG*eT*e[5mC]) [compound 396147],GCGR mRNA levels in liver,GCGR mRNA; 3.2 μmol/kg single i.p.,68% of saline control
same,GCGR mRNA levels in liver,GCGR mRNA; 10 μmol/kg single i.p.,28% of saline control
"ISIS 381408: SGLT2; 1-10-1 MOE gapmer (antisense TACCGAACACCT; sugars from the 5' end e1 d10 e1, backbone and methylation of C not given here)",% change in SGLT2 expression relative to saline,"rat SGLT2 mRNA; 250 nmol/kg i.p. twice per week for three weeks, Sprague-Dawley rats, kidney",−5%
same,expression of SGLT2 in vivo,"rat SGLT2 mRNA; rat kidney, 250 nmol/kg twice per week for three weeks",Activity of ISIS 381408 has been shown
